# Patent US10662164B2, “Non-beta lactam antibiotics” (University of Notre Dame du Lac, priority 2014, dated 2020)
# Where two headings read alike, the source gives them in different places.
# Columns and labels:
# [1] = system: S. aureus NRS100 (COL); experiment: MIC determination; type: cell-based; conditions: Staphylococcus aureus
# Description: (§1) The ESKAPE organisms (E. faecium NCTC (ATCC 19734), S. aureus ATCC 29213, K. pneumonia ATCC 700603, A. baumannii ATCC 17961, P. aeruginosa ATCC 17853, E. aerogenes ATCC 35029) and E. coli ATCC 25922) in the initial screen, S. aureus ATCC 27660, S. epidermis ATCC 35547, S. haemolyticus ATCC 29970, S. oralis ATCC 9811, S. pyogenes ATCC 49399, B. cereus ATCC 13061, B. licheniformis ATCC 12759, and E. faecalis ATCC 29212 were purchased from the American Type Culture Collection (Manassas, Va., USA). S. aureus strains NRS100, NRS119, NRS120, VRS1, and VRS2 were obtained from the Network on Antimicrobial Resistance in Staphylococcus aureus (Chantilly, Va., USA). E. faecalis strains 201 and 99, and E. faecium strains 119-39A and 106 were collected from Wayne State University School of Medicine.
# (§2) The procedure for MIC determination was the same as previously reported (Tran et al., Am. J. Clin. Dermatol. 2015; doi 10.1007/S40257-015-0125-9).
# [2] = system: S. oralis ATCC 9811; experiment: MIC determination; type: cell-based; conditions: Streptococcus oralis, ATCC9811
# Description: as §1, §2
# [3] = system: S. pyogenes ATCC 49399; experiment: MIC determination; type: cell-based; conditions: Streptococcus pyogenes, ATCC49399
# Description: as §1, §2
# [4] = system: S. epidermis ATCC 35547; experiment: MIC determination; type: cell-based
# Description: as §1, §2
# [5] = system: S. aureus VRS1; experiment: MIC determination; type: cell-based; conditions: Staphylococcus aureus
# Description: as §1, §2
# [6] = system: S. haemolyticus ATCC 29970; experiment: MIC determination; type: cell-based; conditions: Staphylococcus haemolyticus, ATCC29970
# Description: as §1, §2
# [7] = system: S. aureus ATCC 27660; experiment: Mouse peritonitis model of infection; type: in vivo; conditions: for Mouse peritonitis (survived/total): iv at 20 mg/kg at 30 min and 7.5 h after infection, survival at 48 h
# Method: Compounds 60b, 60c, 65b, 66b, 75b and 76b were evaluated in the mouse peritonitis model of infection (Table 2). We used the ICR out-bred strain of mice that provides a heterogeneous population, similar to the human situation, thus, ensuring the relevance of the antibacterial effect. This animal model of infection is widely used, it is easy to carry out, and the end points (death or survival) are rapidly assessed, making it less resource-intensive compared to other infection models. In addition, excellent correlation between MIC and ED50 has been shown for 14 β-lactam antibiotics using this model (Kratochwil et al., Biochem. Pharmacol. 2002, 64, 1355). The mouse peritonitis infection model continues to be an important model for evaluation of the efficacy of antibiotics against human pathogens. We use the iv route of administration in initial efficacy studies, as this allows us to test the efficacy without knowledge of the oral bioavailability of the lead. Evaluation was done at 20 mg/kg.
# Female ICR mice (6-8 weeks old, ˜20-g body weight) were used for the PK and peritonitis studies. Animals were purchased from Harlan Laboratories, Inc. (Indianapolis, Ind., USA) and given Teklad 2019 Extruded Rodent Diet and water ad libitum. Mice were maintained in polycarbonate shoebox cages with ¼″ corncob (The Andersons Inc., Maumee, Ohio) and Alpha-dri (Sheperd Specialty Papers, Inc., Richland, Mich.) bedding under 12-h light/12-h dark cycle at 72±2° F.
# The mouse peritonitis model was used with S. aureus ATCC 27660, as described previously (Tran et al., Am. J. Clin. Dermatol. 2015; doi 10.1007/S40257-015-0125-9). The final bacterial inocula contained 5×10^7 cfu/mL and 5% mucin (Sigma-Aldrich Chemical Co., St Louis, Mo., USA). Just prior to inoculation, bacteria at 10^8 cfu/mL were mixed 1:1 with 10% mucin. Mice (n=6 per group) were given 0.5 mL of the bacterial inocula intraperitoneally. Mice were given two iv doses of the compounds at 30 min and 7.5 h after infection by tail vein injection. […] Mice were monitored for 48 h, at which time the number of surviving mice were counted.
# The effective dose that results in survival of 50% of the mice was determined using Probit analysis (XLSTAT, New York, N.Y.). Groups of six mice per dose level were evaluated in the mouse peritonitis infection model at iv doses of 2.5, 5, 7.5, 10, 15, and 20 mg/kg and after po doses at 2.5, 5, 10, 20, and 40 mg/kg. […]
# [8] = system: E. faecium NCTC 7171; experiment: MIC determination; type: cell-based, Enterococcus faecium; conditions: Enterococcus faecium
# [9] = Plasma protein binding, equilibrium dialysis; conditions: 10 μM, 37° C., 6 h
# Method: Protein binding for compounds 60b, 60c, 65b, 66b, 75b and 76b was determined in human plasma using equilibrium dialysis.
# Plasma protein binding was determined using human plasma and a rapid equilibrium dialysis device (Pierce Biotechnology, Thermo Scientific, Waltham, Mass., USA). Human plasma was thawed and centrifuged at 1200 g for 10 min to remove particulates. A […] aliquot of human plasma was added to the sample chamber and 350 μL of 0.1 M phosphate buffered saline (pH 7.4) containing […] sodium chloride was added to the adjacent chamber. A 2-μL aliquot of a stock solution of the compounds at a concentration of 1 mM in DMSO was diluted with human plasma to a final drug concentration of 10 μM and added to the sample chamber. The compounds were dialyzed at 37° C. in an orbital shaker for 6 h. Aliquots (50 μL) were taken from the buffer chamber (representing the free concentration) and from the plasma chamber (representing the total concentration) and mixed with 100 μL of internal standard in acetonitrile to a final concentration of 5 μM. Samples were analyzed by UPLC with UV detection at 285 nm. The plasma protein binding ratio (B %) was calculated according to the following equation: B%=(Cp−Cf)/Cp×100 where Cp and Cf are the total plasma concentration and the free concentration of compound, respectively.
# [10] = system: B. cereus ATCC 13061; experiment: MIC determination; type: cell-based; conditions: Bacillus cereus, ATCC13061
# Description: as §1, §2
# [11] = mecA positive, resistant to methicillin, oxacillin, tetracycline, Tables 1 and 5, read-out: MIC
# [12] = vancomycin-resistant MRSA (vanA) isolate from Michigan, Tables 1 and 5, read-out: MIC
# [13] = NCTC7171, Table 1, read-out: MIC
# [14] = NCTC7171, Table 3.1, compounds of Schemes 2-4, read-out: E. faecium NCTC 7171 MIC
# [15] = Staphylococcus aureus, ATCC27660, iv, 2 doses given at 30 min and 7.5 h after infection, read-out: ED50
# [16] = Staphylococcus aureus, ATCC27660, po, single dose given at 1 h after infection, read-out: ED50
SMILES,"MIC [1, 11] [µg/mL]","MIC ([2]; Table 1, read-out: MIC) [µg/mL]","MIC ([3]; Table 1, read-out: MIC) [µg/mL]","MIC ([4]; Tables 1 and 5, read-out: MIC) [µg/mL]","MIC [5, 12] [µg/mL]","MIC ([6]; Tables 1 and 5, read-out: MIC) [µg/mL]",Mouse peritonitis (survived/total) [7],"MIC [8, 13] [µg/mL]","MIC [8, 14] [µg/mL]",Human plasma protein binding [9] [%],"MIC ([10]; Tables 1 and 5, read-out: MIC) [µg/mL]",also measured
"FC(F)(F)c1ccc(Oc2ccc(-c3noc(-c4c[nH]cn4)n3)cc2)cc1 [Compound 76b, 5-(1H-Imidazol-4-yl)-3-(4-(4-(trifluoromethyl)phenoxy)phenyl)-1,2,4-oxadiazole]",32,> 128,128,32,1,16,3/6,8 to 16,4,93.5 ± 2.4,–,–
"FC(F)(F)c1ccc(Oc2ccc(-c3noc(-c4ccc5[nH]ccc5c4)n3)cc2)cc1 [Compound 75b, 5-(1H-Indol-5-yl)-3-(4-(4-(trifluoromethyl)phenoxy)phenyl)-1,2,4-oxadiazole]",–,128,64,–,1,8,5/6,2 to 4,2,98.2±3.2,16,"ED50 [7, 15]: 7.6 mg/kg; ED50 ([7]; Staphylococcus aureus, ATCC27660, po, 2 doses given at 30 min and 7.5 h after infection, read-out: ED50): 1.7 mg/kg; ED50 [7, 16]: 3.1 mg/kg; ED50 ([7]; iv, 2 doses given at 30 min and 7.5 h after infection): 7.6 mg/kg; ED50 ([7]; po, 2 doses given at 30 min and 7.5 h after infection): 1.7 mg/kg; ED50 ([7]; po, single dose given at 1 h after infection): 3.1 mg/kg; ED50, fold better than that of 1 ([7]; single po dose given at 1 h after infection): 14 fold"
"Fc1ccc(Oc2ccc(-c3noc(-c4n[nH]cc4Cl)n3)cc2)cc1 [Compound 60c, 5-(4-Chloro-1H-pyrazol-3-yl)-3-(4-(4-fluorophenoxy)phenyl)-1,2,4-oxadiazole]",> 128,> 128,> 128,> 128,1,> 128,2/6,32,8,94.5 ± 2.1,> 128,–
"CC(C)Nc1c[nH]nc1-c1nc(-c2ccc(Oc3ccc(C(F)(F)F)cc3)cc2)no1 [Compound 65b, N-Isopropyl-3-(3-(4-(4-(trifluoromethyl)phenoxy)phenyl)-1,2,4-oxadiazol-5-yl)-1H-pyrazol-4-amine]",–,–,–,–,–,–,1/6,–,–,91.6 ± 0.3,–,"MIC [1]: > 128 µg/mL; MIC [2]: > 128 µg/mL; MIC [10]: > 128 µg/mL; MIC [3]: > 128 µg/mL; MIC [4]: > 128 µg/mL; MIC ([5]; MRSA): 1 µg/mL; MIC [6]: > 128 µg/mL; MIC ([8]; NCTC7171): 32 µg/mL; MIC ([8]; NCTC7171, read-out: E. faecium NCTC 7171 MIC): > 128 µg/mL"
"C#Cc1c[nH]nc1-c1nc(-c2ccc(Oc3ccc(C(F)(F)F)cc3)cc2)no1 [Compound 66b, 5-(4-Ethynyl-1H-pyrazol-3-yl)-3-(4-(4-(trifluoromethyl)phenoxy)phenyl)-1,2,4-oxadiazole]",> 128,> 128,> 128,> 128,1,> 128,2/6,–,> 128,96.4 ± 2.7,> 128,–
"FC(F)(F)c1ccc(Oc2ccc(-c3noc(-c4n[nH]cc4Cl)n3)cc2)cc1 [Compound 60b, 5-(4-Chloro-1H-pyrazol-3-yl)-3-(4-(4-(trifluoromethyl)phenoxy)phenyl)-1,2,4-oxadiazole]",> 128,> 128,> 128,> 128,1 to 2,> 128,4/6,16,2,97.8 ± 0.3,> 128,–
Oc1ccc(-c2nc(-c3ccc(Oc4ccc(C(F)(F)F)cc4)cc3)no2)cc1 [Compound 1],2,32,32,2,2,2,–,2,1,99.9 ± 0.1,2,"ED50 [7, 15]: 40 mg/kg; ED50 [7, 16]: 44 mg/kg"
